What all share (type): biochemical
In one assay the test system is PKC (mix of isoforms). As to the kind of experiment: PKC assay (counter screen). The note with it: myelin basic protein substrate; read-out: Counter screens IC50 (μM) PKC. The procedure:
Final assay concentrations were as follows: 0.25 mM EGTA, 0.4 mM CaCl, 20 mM Tris pH 7.5, 10 mM MgCl, 1 mM 2-mercaptoethanol, 0.32 mg/ml phosphatidylserine, 0.032 mg/ml diacylglycerol, 10 μM ^33P-ATP, 70 μg/ml MBP, 10 ng/ml PKC, 0.1 mg/ml BSA.
Assays are performed using 96 deep well assay plates. In each assay well 10 μl of solvent control or appropriate inhibitor dilution with 5 μl ^33P-ATP (components #5 and #3) were premixed. In a separate tube, a mixture containing equal volumes of components #1, #2, #4, and #6 was prepared. The assay reaction was initiated by adding 35 μl of the components #1, #2, #4, and #6 mixture to wells containing ^33P-ATP and inhibitor. The liquid in the assay wells was thoroughly mixed and the assay reactions incubated for 20 minutes at room temperature. The reactions were stopped by adding 100 mM EDTA (50 μl) and 100 mM sodium pyrophosphate (50 μl) and mixing. Phosphorylated MBP was collected on PVDF membranes in 96 well filter plates and quantitated by scintillation counting.
For orientation: A counterscreen serves to expose hits that act by an unwanted route or on another target.

The next assay has as its target T1, Akt2 (Homo sapiens, UniProt P31751).
T1 construct: a middle T tag was added to the 5′ end of the full length Akt2 using the PCR primer; biotin tag (from pS2neo vector); made in house; host or cells: Drosophila S2 cells
Kind of assay: Akt kinase assay, phosphorylation of GSK3-derived peptide. From the text:
(§1) This procedure describes a kinase assay which measures phosphorylation of a biotinylated GSK3-derived peptide by human recombinant active Akt/PBK isoforms or Akt/PBK mutants. The ^33P-labeled biotinylated product can be captured and detected using Streptavidin coated Flashplates (NEN LifeSciences) or Streptavidin Membrane Filter Plates (Promega). Alternatively, a GSK3-derived peptide with 2 added lysine residues was used as the substrate and subsequently captured using Phosphocellulose Membrane Filter Plates (Polyfiltronics).
(§2) Active human Akt: The following active human Akt isoforms were utilized in the in vitro assays: active human Akt1 (obtained from Upstate Biotechnology, catalog no. 14-276, 15 μg/37 μl (6.76 μM)) or recombinant lipid activated Akt1 (prepared as described in Example 5); Akt2 (prepared as described in Example 5); Akt3 (prepared as described in Example 5); and delta PH-Akt1 (prepared as described in Example 5).
(§3) Akt specific peptide substrate: GSK3α (S21) Peptide #3928, biotin-[…] (SEQ.ID.NO.: 15), FW=1517.8 (obtained from Macromolecular Resources) for Streptavidin Flashplate or Streptavidin Filter Plate detection.
(§4) GSK3α (S21) Peptide #G80613, […] (SEQ.ID.NO.: 14), FW=1547.8 (obtained from Research Genetics) for Phosphocellulose filter plate detection.
(§5) • B. Active Akt (500 nM): Diluent (1× Assay buffer, 10% glycerol, 0.1% β-mercaptoethanol, 1.0 μM microcystin LR and 1.0 mM EDTA) was added to a vial containing 37 μl of active Akt isoform (6.76 μM). Aliquots were flash frozen in liquid N2 and stored at −70° C. • C. […] Procedure for Streptavidin Flash Plate Assay: Step 1: […]
(§6) The plates were covered with sealing tape and counted using the Packard TopCount with the appropriate settings for counting [^33P] in Flashplates. […]
(§7) The bottom of the plate was sealed with white backing tape, 30 μl/well of Microscint 20 (Packard Instruments, catalog no. 6013621) was added. The top of the plate was sealed with clear sealing tape, and the plate then counted using the Packard TopCount with the appropriate settings for [^33P] with liquid scintillant. […]

The target of another assay is T2, Akt3 (Homo sapiens, UniProt Q9Y243).
T2 construct: a middle T tag was added to the 5′ end of the full length Akt3 clone using the PCR primer; biotin tag (from pS2neo vector); made in house; host or cells: Drosophila S2 cells
T2 sequence (Q9Y243 whole entry): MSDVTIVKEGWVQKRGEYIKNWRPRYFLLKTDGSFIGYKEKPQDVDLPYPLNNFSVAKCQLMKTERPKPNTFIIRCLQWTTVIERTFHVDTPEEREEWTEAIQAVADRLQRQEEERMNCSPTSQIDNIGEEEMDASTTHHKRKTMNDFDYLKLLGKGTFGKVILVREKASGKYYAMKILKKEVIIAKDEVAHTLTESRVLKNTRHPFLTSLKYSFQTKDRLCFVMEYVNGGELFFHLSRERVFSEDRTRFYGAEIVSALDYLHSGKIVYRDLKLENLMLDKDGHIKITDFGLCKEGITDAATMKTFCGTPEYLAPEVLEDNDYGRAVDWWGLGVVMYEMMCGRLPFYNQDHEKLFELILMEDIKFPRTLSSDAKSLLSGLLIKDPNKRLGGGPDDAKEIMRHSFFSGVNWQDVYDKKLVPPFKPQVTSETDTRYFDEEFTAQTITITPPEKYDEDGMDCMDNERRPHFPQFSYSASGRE
The description is as above.
Excerpt: as §1, §2, §3, §4, §5, §6, §7

For a further assay, the target named is T3, active human Akt1 (Homo sapiens, UniProt P31749).
T3 construct: purchased Upstate Biotechnology 14-276
T3 sequence (P31749 whole entry): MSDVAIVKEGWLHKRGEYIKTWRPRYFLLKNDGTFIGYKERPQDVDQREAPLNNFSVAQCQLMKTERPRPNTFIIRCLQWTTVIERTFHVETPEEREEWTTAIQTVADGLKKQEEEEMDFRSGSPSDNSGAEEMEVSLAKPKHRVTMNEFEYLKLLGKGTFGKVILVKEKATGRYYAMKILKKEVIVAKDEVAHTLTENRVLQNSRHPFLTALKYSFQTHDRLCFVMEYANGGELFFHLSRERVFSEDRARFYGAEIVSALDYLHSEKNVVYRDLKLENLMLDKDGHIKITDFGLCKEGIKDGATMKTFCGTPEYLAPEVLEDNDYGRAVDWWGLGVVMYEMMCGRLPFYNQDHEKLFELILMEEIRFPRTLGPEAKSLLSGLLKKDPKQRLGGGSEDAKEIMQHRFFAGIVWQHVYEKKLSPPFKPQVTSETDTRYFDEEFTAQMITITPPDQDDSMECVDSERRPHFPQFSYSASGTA
The assay is described as above. The following applies: GSK3 peptide substrate; read-out: GSK3 Peptide Substrate IC50 (μM) Akt-1.
Excerpt: as §1, §2, §3, §4, §5, §6, §7

For the next assay, the target named is T4, delta PH-Akt1 (Homo sapiens, UniProt P31749).
T4 construct: PCR deletion mutagenesis was done using the full length Akt1 gene in the pS2neo vector as template; biotin tag (from pS2neo vector); made in house; host or cells: Drosophila S2 cells
T4 sequence (P31749 with tags, fused parts or gaps): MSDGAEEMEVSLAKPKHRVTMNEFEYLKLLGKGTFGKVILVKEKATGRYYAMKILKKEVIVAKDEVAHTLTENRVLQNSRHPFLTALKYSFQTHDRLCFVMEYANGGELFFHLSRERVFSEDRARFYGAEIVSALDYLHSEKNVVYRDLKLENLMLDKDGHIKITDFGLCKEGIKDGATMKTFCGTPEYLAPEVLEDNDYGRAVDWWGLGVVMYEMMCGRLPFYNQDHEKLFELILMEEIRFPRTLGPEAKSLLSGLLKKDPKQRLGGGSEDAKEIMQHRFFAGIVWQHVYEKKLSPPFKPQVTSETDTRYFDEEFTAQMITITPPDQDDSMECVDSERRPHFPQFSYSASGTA
The description is as above. The procedure:
For the expression of a pleckstrin homology domain (PH) deleted (Δ aa 4-129, which includes deletion of a portion of the Akt1 hinge region) version of Akt1, PCR deletion mutagenesis was done using the full length Akt1 gene in the pS2neo vector as template. The PCR was carried out in 2 steps using overlapping internal primers (5′[…]Δ[…] 3′ (SEQ.ID.NO.: 6), and 5′[…]Δ[…] TATTC 3′ (SEQ.ID.NO.: 7)) which encompassed the deletion and 5′ and 3′ flanking primers which encompassed the KpnI site and middle T tag on the 5′ end. The final PCR product was digested with KpnI and SmaI and ligated into the pS2neo full length Akt1 KpnI/Sma I cut vector, effectively replacing the 5′ end of the clone with the deleted version.
This procedure describes a kinase assay which measures phosphorylation of a biotinylated GSK3-derived peptide by human recombinant active Akt/PBK isoforms or Akt/PBK mutants. The ^33P-labeled biotinylated product can be captured and detected using Streptavidin coated Flashplates (NEN LifeSciences) or Streptavidin Membrane Filter Plates (Promega). Alternatively, a GSK3-derived peptide with 2 added lysine residues was used as the substrate and subsequently captured using Phosphocellulose Membrane Filter Plates (Polyfiltronics). […]
as §6

The target in a further assay is T5, PKA catalytic subunit (Bos taurus, UniProt P00517).
T5 construct: purchased UBI (Upstate Biotechnology) 14-114
As to the kind of experiment: PKA assay (counter screen). The procedure:
Each individual PKA assay consists of the following components: • 1) 10 μl 5×PKA assay buffer (200 mM Tris pH7.5, 100 mM MgCl2, 5 mM 2-mercaptoethanol, 0.5 mM EDTA) • 2) 10 μl of a 50 μM stock of Kemptide (Sigma) diluted into water • 3) 10 μl ^33P-ATP (prepared by diluting 1.0 μl ^33P-ATP [10 mCi/ml] into 200 μl of a 50 μM stock of unlabeled ATP) • 4) 10 μl appropriate solvent control dilution or inhibitor dilution • 5) 10 μl of a 70 nM stock of PKA catalytic subunit (UBI catalog #14-114) diluted in 0.5 mg/ml BSA
The final assay concentrations were 40 mM Tris pH 7.5, 20 mM MgCl2, 1 mM 2-mercaptoethanol, 0.1 mM EDTA, 10 μM Kemptide, 10 μM ^33P-ATP, 14 nM PKA and 0.1 mg/ml BSA.
Assays were assembled in 96 deep-well assay plates. Components #3 and #4 were premixed and in a separate tube, a mixture containing equal volumes of components #1, #2, and #5 was prepared. The assay reaction was initiated by adding 30 μl of the components #1, #2, and #5 mixture to wells containing ^33P-ATP and inhibitor. The liquid in the assay wells was mixed and the assay reactions incubated for 20 minutes at room temperature. […]
The enzyme reaction product (phosphorylated Kemptide) was quantitated using p81 phosphocellulose 96 well filter plates (Millipore). […] 30 μl scintillation fluid was added to each well and the filters counted on a TopCount (Packard).

pIC50: −log10 of the molar value. Where only a bound is given, the exact number is not on record here.

T1 sequence (P31751 whole entry): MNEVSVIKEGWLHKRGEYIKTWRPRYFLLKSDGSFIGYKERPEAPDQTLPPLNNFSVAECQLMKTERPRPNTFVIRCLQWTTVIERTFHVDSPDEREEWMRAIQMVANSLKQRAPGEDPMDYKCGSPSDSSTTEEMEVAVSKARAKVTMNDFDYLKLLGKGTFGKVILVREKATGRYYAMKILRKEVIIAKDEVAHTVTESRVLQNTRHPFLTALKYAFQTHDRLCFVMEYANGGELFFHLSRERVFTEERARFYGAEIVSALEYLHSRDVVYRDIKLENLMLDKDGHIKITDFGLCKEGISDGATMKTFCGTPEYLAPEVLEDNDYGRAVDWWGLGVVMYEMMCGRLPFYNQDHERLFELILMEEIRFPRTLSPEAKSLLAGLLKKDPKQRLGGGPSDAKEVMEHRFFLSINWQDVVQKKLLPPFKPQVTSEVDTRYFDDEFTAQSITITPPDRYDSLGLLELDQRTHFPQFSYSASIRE

What is called IC50 is the concentration that gives 50% inhibition. Turning to `OCCOc1nn2c(-c3ccccc3)nnc2cc1-c1ccccc1` [Compound 1, 6-(2-Hydroxyethyl)oxy-3,7-diphenyl-[1,2,4]triazolo[4,3-b]pyridazine], the half-maximal inhibitory concentration (IC50) in the assay with PKC (mix of isoforms) is greater than 40 µM.
In general, pIC50 refers to the negative decadic logarithm of the IC50, by convention in mol/L. A low value points to a large IC50. For the compound `OCCCCOc1nn2c(-c3ccccc3)nnc2cc1-c1ccccc1` [Compound 2], the negative-log IC50 (pIC50) at Akt2 was less than 4.30; at Akt3, less than 4.30; on delta PH-Akt1, less than 4.30; at PKA catalytic subunit, less than 4.40. The results for the IC50 on active human Akt1 and in the assay with PKC (mix of isoforms) were 4.65 µM and greater than 40 µM, respectively.

Source of the values: patent publication US6960584B2 (Merck & Co., Inc., priority 2001, dated 2005).
